Results published in patent US20190292243A1, “PEPTIDES AND METHODS OF USE THEREOF” (Fred Hutchinson Cancer Research Center, priority 2016, published 2019).
Square brackets hold non-standard residues; d marks the D form. Ends that are not written are not given here. Peptide text beside a SMILES is read from it. * marks the point of attachment. Dolaproine = CO[C@@H]([C@@H]1CCCN1)[C@@H](C)C(=O)O; Dil = CC[C@H](C)[C@H](NC)[C@@H](CC(=O)O)OC; X1 = C[C@@H](N*)[C@@H](O)c1ccccc1; NMeV = CN[C@H](C(=O)O)C(C)C

Columns and labels:
[1] = test system: A375 cells and RH28 cells; assay: Modulation of SEQ ID NO: 15-A accumulation in cells by small molecule drugs (flow cytometry median fluorescence); assay type: cell-based; conditions: drug at increasing concentrations with 1 μM SEQ ID NO: 15-A
Text: This example illustrates the small molecule drug enhancing properties of peptides of this disclosure. Peptides of this disclosure were useful in enhancing or dampening the potency of several small molecule drugs. […] The Approved Oncology Drugs Plated Set VII was obtained from NCI and included histone deacetylase (HDAC) inhibitors such as vorinostat, belinostat, panobinostat, and […]. The tested set also included tyrosine kinase inhibitors, protease inhibitors, and anthracyclines. A375 cells and RH28 cells were plated at 10,000 cells per well in 96 well plates and allowed to adhere overnight. […] Cells were washed three times with PBS-FBS and once in PBS. Cells were trypsinized, resuspended in PBS-FBS-DAPI, and assessed for average fluorescence as compared to untreated cells by flow cytometry analysis. […] Cells were washed three times with PBS-FBS and once in PBS. Cells were trypsinized, resuspended in PBS-FBS-DAPI, and assessed for average fluorescence as compared to untreated cells by flow cytometry analysis.

[2] = test system: Caspase-3 activation in Ramos lymphoma tumor, liver, kidney; assay: Caspase-3 staining of tissues after MMAE or peptide-MMAE conjugate; assay type: in vivo, female Harlan athymic mice; conditions: 7.5 nmol, 48 hours after single systemic administration
Protocol: This example illustrates whole-body autoradiography and Caspase-3 staining after administration of peptide conjugated to MMAE. MMAE was conjugated to a peptide of SEQ ID NO: 26 with a Val-Cit-PABC linker to produce a SEQ ID NO: 26-B peptide conjugate (SEQ ID NO: 26-B). 7.5 nmol MMAE or 7.5 nmol SEQ ID NO: 26-B were administered to RH-28 tumor-bearing or Ramos lymphoma tumor-bearing female Harlan athymic mice and allowed to freely circulate for 24 or 48 hours.

RH28 flank tumors = assay: Chirality in tumor homing, RH28 flank tumors (ex vivo IVIS); parameters: species or system mice; conditions: AF647 conjugates, 10 nmol per mouse intravenously, one hour
Protocol: This example illustrates the role of chirality in tumor homing peptides of this disclosure. Each L-enantiomer in a peptide of SEQ ID NO: 15 was replaced with the corresponding D-enantiomer (SEQ ID NO: 36). Both peptides were conjugated to AlexaFluor 647 and tumor homing, and homing to the liver and kidneys was assessed by fluorescence quantification. […] Peptide-AF647 conjugates were administered intravenously to mice bearing RH28 flank tumors at 10 nmol per mouse. Mice were euthanized one hour post-administration, organs were necropsied, and tissues were analyzed ex vivo using an IVIS imager. P-values were determined using an unpaired Student's t-test.

RH28 cell line = assay: Relative viability of RH28 cells; assay type: cell-based; conditions: various doses
Protocol: (§1) This example describes the viability different cell lines to MMAE or MMAE-peptide conjugates and toxicity induced by delivery of MMAE to cells by a peptide conjugate of the disclosure. A peptide of SEQ ID NO: 26 was expressed recombinantly or chemically synthesized and then conjugated to a therapeutic agent, MMAE, by a Val-Cit-PAB linker, producing SEQ ID NO: 26-B peptide conjugate (SEQ ID NO: 26-B). HeLa cells were treated in vitro with MMAE, SEQ ID NO: 26 peptide, or SEQ ID NO: 26-B, and viability was quantified. Ewing's Sarcoma cell lines including the RH28 cell line, A673 cell line, and A204 cell line, were treated in vitro with MMAE or SEQ ID NO: 26-B for 48-72 hours and viability of cells was quantified.

A673 cell line = assay: Relative viability of A673 cells; assay type: cell-based; conditions: various doses
Protocol: as §1

A204 cell line = assay: Relative viability of A204 cells; assay type: cell-based; conditions: 48 hours after administration, various doses
Protocol: as §1

RH-28 tumor = assay: Whole-body autoradiography after peptide-MMAE conjugate administration, RH-28 tumor; assay type: in vivo, female Harlan athymic mice; conditions: 14 nmol, 24 hours after administration
Text: This example illustrates whole-body autoradiography and Caspase-3 staining after administration of peptide conjugated to MMAE. MMAE was conjugated to a peptide of SEQ ID NO: 26 with a Val-Cit-PABC linker to produce a SEQ ID NO: 26-B peptide conjugate (SEQ ID NO: 26-B). […]
At the end of the dosing period, mice were frozen in a hexane/dry ice bath and then frozen in a block of carboxymethylcellulose. […] Thin, frozen sections of mice were obtained with a microtome, allowed to desiccate in a freezer, and exposed to phosphoimager plates for about ten days.
These plates were developed, and the signal (densitometry) from each organ was normalized to the signal found in the heart blood of each mouse. A signal in tissue darker than the signal expected from blood in that tissue indicates peptide accumulation in a region, tissue, structure or cell.

[3] = 72 hours of continuous treatment

Q: With `Cn1c(=O)n(-c2ccc(C(C)(C)C#N)cc2)c2c3cc(-c4cnc5ccccc5c4)ccc3ncc21` [BEZ235] as the molecule, how does the “modulation of accumulation of SEQ ID NO: 15-A in tumor cells (median fluorescence vs untreated)” value [1] read?
A: modulate the accumulation of peptides of this disclosure to tumor cells

Q: With `CC[C@H](C)[C@@H]([C@@H](CC(=O)N1CCC[C@H]1[C@H](OC)[C@@H](C)C(=O)N[C@H](C)[C@@H](O)c1ccccc1)OC)N(C)C(=O)[C@@H](NC(=O)[C@@H](NC)C(C)C)C(C)C` [MMAE, monomethyl auristatin E] (H-[NMeV]V[Dil][Dolaproine]-X1) as the molecule, how does the “Caspase-3 staining in tumor, liver and kidney” value [2] read?
A: induction of apoptosis

Q: For `Nc1ccn([C@@H]2O[C@H](CO)[C@@H](O)[C@@H]2O)c(=O)n1` [cytarabine], which “modulation of accumulation of SEQ ID NO: 15-A in tumor cells (median fluorescence vs untreated)” value [1] is on record?
A: modulate the accumulation of peptides of this disclosure to tumor cells

Q: With `O=C(CCCCCCC(=O)Nc1ccccc1)NO` [vorinostat] as the molecule, how does the “modulation of accumulation of SEQ ID NO: 15-A in tumor cells (median fluorescence vs untreated)” value [1] read?
A: modulate the accumulation of peptides of this disclosure to tumor cells

Q: With “GSSCEPGRTFRDRCNTCRCGADGRSAACTLRACPNQ (not fully specified (some residues); ends and bridges not checked) [SEQ ID NO: 15]” as the molecule, how does the “homing to RH28 flank tumor (average radiant efficiency fluorescence), L- vs D-amino acid peptide” value (RH28 flank tumors) read?
A: higher homing to flank tumor than a peptide of SEQ ID NO: 36

Q: “SEQ ID NO: 15-B (GSSCEPGRTFRDRCNTCRCGADGRSAACTLRACPNQ; cysteine pairing not given here; also: conjugate B)” was tested. Which “relative viability / growth of RH28 cells” value (RH28 cell line; 48 hours after administration) did it give?
A: inhibited growth of all three cell lines

Q: What about the “relative viability / growth of A673 cells” value (A673 cell line; 48 hours after administration) of the same molecule?
A: inhibited growth of all three cell lines

Q: What about the “relative viability / growth of A204 cells” value (A204 cell line) of the same molecule?
A: inhibited growth of all three cell lines

Q: “SEQ ID NO: 26-B (GSSCEPGRTFRDRCNTCKCGADGRSAACTLRACPNQ; cysteine pairing not given here; also: conjugate B)” was tested. Which “relative viability / growth of RH28 cells” value (RH28 cell line; [3]) did it give?
A: inhibited growth of both cell lines

Q: And the “relative viability / growth of A673 cells” value (A673 cell line; [3])?
A: inhibited growth of both cell lines

Q: With “SEQ ID NO: 26-Br (GSSCEPGRTFRDRCNTCKCGADGRSAACTLRACPNQ; cysteine pairing not given here; also: conjugate Br)” as the molecule, how does the “14C signal distribution in tissues (autoradiography)” value (RH-28 tumor) read?
A: accumulation in the RH-28 tumor

Q: bleomycin was tested. Which “modulation of accumulation of SEQ ID NO: 15-A in tumor cells (median fluorescence vs untreated)” value [1] did it give?
A: modulate the accumulation of peptides of this disclosure to tumor cells
